Structures can show the parent of a compound that is named as a salt. Some results are limits rather than exact numbers.

The experiment relates to HCT116. The settings on record: 72 h. In outline:
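Four-parameter Hill fits gave IC50 and maximal efficacy. The data were CellTiter-Glo luminescence readings in HCT116 cells, normalized so that vehicle was 0% and positive control was -100%, with pattern correction afterwards.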

In the case of `C[C@]1(Cn2ccnn2)[C@H](C(=O)O)N2C(=O)C[C@H]2S1(=O)=O` [Tazobactam sodium], the IC50 cell viability reads like this: (ICRF193 0 nM) over 45.8 µM; (ICRF193 200 nM) over 45.8 µM.
Take `CCCc1c2oc(C(=O)O)cc(=O)c2cc2c(=O)cc(C(=O)O)n(CC)c12` [Nedocromil]: the IC50 cell viability was over 45.8 µM (ICRF193 0 nM) and over 45.8 µM (ICRF193 200 nM).
Regarding `COc1cc(N)c(Cl)cc1C(=O)NC1CCN(CCCOc2ccc(F)cc2)CC1OC` (stereo unspecified) [Cisapride], the IC50 cell viability is over 45.8 µM (ICRF193 0 nM) and over 45.8 µM (ICRF193 200 nM).
For `COc1ccc2c(c1)c(CC(=O)OCC(=O)O)c(C)n2C(=O)c1ccc(Cl)cc1` [Acemetacin], the IC50 cell viability reads like this: (ICRF193 0 nM) over 45.8 µM; (ICRF193 200 nM) over 45.8 µM.
`CCc1oc2ccccc2c1C(=O)c1cc(Br)c(O)c(Br)c1` [Benzbromarone]: the IC50 cell viability (ICRF193 0 nM) was over 45.8 µM and the IC50 cell viability (ICRF193 200 nM) is over 45.8 µM.
On to `CCN(C(=O)c1c(O)c2c(Cl)cccc2n(C)c1=O)c1ccccc1` [Laquinimod], for which the IC50 cell viability (ICRF193 0 nM) is over 45.8 µM and the IC50 cell viability (ICRF193 200 nM) was over 45.8 µM.
Take `CC(C)CCCC(C)CCCC(C)CCCCC(C)CCCC(C)CCCC(C)C` (stereo unspecified) [Squalane]: the IC50 cell viability is over 45.8 µM (ICRF193 0 nM) and over 45.8 µM (ICRF193 200 nM).
On to `CCC(=O)c1ccc(O)cc1` [Paroxypropione], for which the IC50 cell viability is, setting by setting: (ICRF193 0 nM) over 45.8 µM; (ICRF193 200 nM) over 45.8 µM.
The compound `CC(C)CCC[C@@H](C)[C@H]1CC[C@H]2[C@@H]3CC=C4C[C@@H](O)CC[C@]4(C)[C@H]3CC[C@]12C` [Cholesterol] yielded an IC50 cell viability (ICRF193 0 nM) of over 45.8 µM and an IC50 cell viability (ICRF193 200 nM) of over 45.8 µM.
Turning to `O=CCCCC=O` [Glutaraldehyde], the IC50 cell viability reads like this: (ICRF193 0 nM) over 45.8 µM; (ICRF193 200 nM) over 45.8 µM.
As to `C[C@H](Cc1cc2c(c(C(N)=O)c1)N(CCCO)CC2)NCCOc1ccccc1OCC(F)(F)F` [Silodosin], the IC50 cell viability runs as follows: (ICRF193 0 nM) over 45.8 µM; (ICRF193 200 nM) over 45.8 µM.
`CCCCCCCCCCCCCCCCCCO` [1-Octadecanol]: the IC50 cell viability is, setting by setting: (ICRF193 0 nM) over 45.8 µM; (ICRF193 200 nM) over 45.8 µM.
With `CC(=O)OCC(CCn1cnc2cnc(N)nc21)COC(C)=O` [Famciclovir], the IC50 cell viability by setting is: (ICRF193 0 nM) over 45.8 µM; (ICRF193 200 nM) over 45.8 µM.
Regarding `CC(C)(C)NCC(O)COc1cccc2c1CC(O)C(O)C2` (stereo unspecified) [Nadolol], the IC50 cell viability reads like this: (ICRF193 0 nM) over 45.8 µM; (ICRF193 200 nM) over 45.8 µM.
Take `CN1[C@@H]2CC[C@H]1C[C@@H](OC(=O)[C@H](CO)c1ccccc1)C2` [HYOSCYAMINE]: the IC50 cell viability is over 45.8 µM (ICRF193 0 nM) and over 45.8 µM (ICRF193 200 nM).
Turning to `CC(C)N(CCCCOCC(=O)NS(C)(=O)=O)c1cnc(-c2ccccc2)c(-c2ccccc2)n1` [NS-304], the IC50 cell viability was over 45.8 µM (ICRF193 0 nM) and over 45.8 µM (ICRF193 200 nM).
For the compound `CC(=O)N(CC(O)CN(C(C)=O)c1c(I)c(C(=O)NCC(O)CO)c(I)c(C(=O)NCC(O)CO)c1I)c1c(I)c(C(=O)NCC(O)CO)c(I)c(C(=O)NCC(O)CO)c1I` (stereo unspecified) [Iodixanol], the IC50 cell viability (ICRF193 0 nM) was over 45.8 µM and the IC50 cell viability (ICRF193 200 nM) is over 45.8 µM.
As for `CCC1C(C)=NN=C(c2ccc(OC)c(OC)c2)c2cc(OC)c(OC)cc21` (stereo unspecified) [Tofisopam], the IC50 cell viability runs as follows: (ICRF193 0 nM) over 45.8 µM; (ICRF193 200 nM) over 45.8 µM.
With `O=C(O)c1ccccc1-c1c2ccc(=O)cc-2oc2cc(O)ccc12` [Fluorescein sodium], the IC50 cell viability runs as follows: (ICRF193 0 nM) over 45.8 µM; (ICRF193 200 nM) over 45.8 µM.
Compound `CCc1ccc(Nc2c(F)c(F)cc(F)c2F)c(CC(=O)O)c1` [ROBENACOXIB] displayed an IC50 cell viability (ICRF193 0 nM) of over 45.8 µM and an IC50 cell viability (ICRF193 200 nM) of over 45.8 µM.
As to `CNC(=O)OCc1cccc(COC(=O)NC)n1` [Pyricarbate], the IC50 cell viability is over 45.8 µM (ICRF193 0 nM) and over 45.8 µM (ICRF193 200 nM).
In the case of `C[C@@H](O)[C@H]1C(=O)N2C(C(=O)O)=C(S[C@@H]3CN[C@H](C(=O)N(C)C)C3)[C@H](C)[C@H]12` [Meropenem], the IC50 cell viability reads like this: (ICRF193 0 nM) over 45.8 µM; (ICRF193 200 nM) over 45.8 µM.
Take `C[C@]12CCC(=O)C=C1CC[C@@H]1[C@@H]2[C@@H](O)C[C@@]2(C)[C@H]1CC[C@]2(O)C(=O)COP(=O)(O)O` [Hydrocortisone Sodium Phosphate]: the IC50 cell viability runs as follows: (ICRF193 0 nM) over 45.8 µM; (ICRF193 200 nM) over 45.8 µM.
For `CCOc1ccc(NC(=O)CC(C)O)cc1` (stereo unspecified) [3-Hydroxy-4-butyrophenetidide], the IC50 cell viability runs as follows: (ICRF193 0 nM) over 45.8 µM; (ICRF193 200 nM) over 45.8 µM.
As for `COc1cc(C)c(Cc2cnc(N)nc2N)cc1OC` [Ormetoprim], the IC50 cell viability was over 45.8 µM (ICRF193 0 nM) and over 45.8 µM (ICRF193 200 nM).
On to `C(=C\c1ccccc1)/CN1CCN(C(c2ccccc2)c2ccccc2)CC1` [Cinnarizine], for which the IC50 cell viability reads like this: (ICRF193 0 nM) over 45.8 µM; (ICRF193 200 nM) over 45.8 µM.
With `C[C@@H]1C[C@H]2[C@@H]3C[C@H](F)C4=CC(=O)C=C[C@]4(C)[C@@]3(Cl)[C@@H](O)C[C@]2(C)[C@H]1C(=O)COC(=O)C(C)(C)C` [Clocortolone pivalate], the IC50 cell viability runs as follows: (ICRF193 0 nM) over 45.8 µM; (ICRF193 200 nM) over 45.8 µM.
Regarding `Nc1c(NC/C=C\COc2cc(CN3CCCCC3)ccn2)c(=O)c1=O` [Pibutidine], the IC50 cell viability reads like this: (ICRF193 0 nM) over 45.8 µM; (ICRF193 200 nM) over 45.8 µM.
With `NCCC[C@H](N)CC(=O)N[C@H]1CNC(=O)[C@H]([C@H]2C[C@H](O)NC(N)=N2)NC(=O)/C(=C/NC(N)=O)NC(=O)[C@H](CO)NC(=O)[C@H](CO)NC1=O` [VIOMYCIN SULFATE], the IC50 cell viability reads like this: (ICRF193 0 nM) over 45.8 µM; (ICRF193 200 nM) over 45.8 µM.
For the compound `COP(=S)(OC)Oc1ccc(SC)c(C)c1` [Fenthion], the IC50 cell viability runs as follows: (ICRF193 0 nM) over 45.8 µM; (ICRF193 200 nM) over 45.8 µM.
Consider `CN1C(C(=O)Nc2ccccn2)=C(O)c2ccccc2S1(=O)=O` [Piroxicam], for which the IC50 cell viability runs as follows: (ICRF193 0 nM) over 45.8 µM; (ICRF193 200 nM) over 45.8 µM.
Turning to `COc1ccc2cccc(CCNC(C)=O)c2c1` [Agomelatine], the IC50 cell viability runs as follows: (ICRF193 0 nM) over 45.8 µM; (ICRF193 200 nM) over 45.8 µM.
With `CC(C)NC[C@@H](O)COc1ccc(CC(N)=O)cc1` [R-(+)-Atenolol], the IC50 cell viability is, setting by setting: (ICRF193 0 nM) over 45.8 µM; (ICRF193 200 nM) over 45.8 µM.
On to `O=C(O)COCCN1CCN(C(c2ccccc2)c2ccc(Cl)cc2)CC1` (stereo unspecified) [CETIRIZINE HYDROCHLORIDE], for which the IC50 cell viability by setting is: (ICRF193 0 nM) over 45.8 µM; (ICRF193 200 nM) over 45.8 µM.
As to `O=C(NCCN1CCOCC1)c1ccc(Cl)cc1` [Moclobemide], the IC50 cell viability is over 45.8 µM (ICRF193 0 nM) and over 45.8 µM (ICRF193 200 nM).
For the compound `CN1CCC(OC(c2ccccc2)c2ccccc2)CC1` [Diphenylpyraline hydrochloride], the IC50 cell viability reads like this: (ICRF193 0 nM) over 45.8 µM; (ICRF193 200 nM) over 45.8 µM.
Consider `CN1C(C(=O)Nc2ccccn2)=C(O)c2sccc2S1(=O)=O` [Tenoxicam], for which the IC50 cell viability (ICRF193 0 nM) is over 45.8 µM and the IC50 cell viability (ICRF193 200 nM) is over 45.8 µM.
For the compound `COc1ccc(OC)c(C(O)CNC(=O)CN)c1` (stereo unspecified) [Midodrine hydrochloride], the IC50 cell viability was over 45.8 µM (ICRF193 0 nM) and over 45.8 µM (ICRF193 200 nM).
The compound `CCN1CCN(C(=O)N[C@@H](C(=O)N[C@@H]2C(=O)N3[C@@H]2SC(C)(C)[C@@H]3C(=O)O)c2ccccc2)C(=O)C1=O` [Piperacillin sodium salt] yielded an IC50 cell viability (ICRF193 0 nM) of over 45.8 µM and an IC50 cell viability (ICRF193 200 nM) of over 45.8 µM.
`COC(=S)NCCn1c([N+](=O)[O-])cnc1C` [CARNIDAZOLE] displayed an IC50 cell viability (ICRF193 0 nM) of over 45.8 µM and an IC50 cell viability (ICRF193 200 nM) of over 45.8 µM.
In the case of `Nc1nc(O)c2ncn(CCC(CO)CO)c2n1` [Penciclovir], the IC50 cell viability is, setting by setting: (ICRF193 0 nM) over 45.8 µM; (ICRF193 200 nM) over 45.8 µM.
For `N#Cc1cc(NC(=O)C(=O)O)c(Cl)c(NC(=O)C(=O)O)c1` [Lodoxamide], the IC50 cell viability is over 45.8 µM (ICRF193 0 nM) and over 45.8 µM (ICRF193 200 nM).
For `NCC(O)c1ccc(O)cc1` (stereo unspecified) [Octopamine], the IC50 cell viability is, setting by setting: (ICRF193 0 nM) over 45.8 µM; (ICRF193 200 nM) over 45.8 µM.
`O=C(OCc1ccccc1)c1ccc(O)cc1` [Benzylparaben] returned an IC50 cell viability (ICRF193 0 nM) of over 45.8 µM and an IC50 cell viability (ICRF193 200 nM) of over 45.8 µM.
Regarding `COCC(=O)Nc1c(I)c(C(=O)NCC(O)CO)c(I)c(C(=O)N(C)CC(O)CO)c1I` (stereo unspecified) [Iopromide], the IC50 cell viability by setting is: (ICRF193 0 nM) over 45.8 µM; (ICRF193 200 nM) over 45.8 µM.
Consider `COc1cc2c(cc1OC)C(=O)C(CC1CCN(Cc3ccccc3)CC1)C2` (stereo unspecified) [Donepezil hydrochloride], for which the IC50 cell viability reads like this: (ICRF193 0 nM) over 45.8 µM; (ICRF193 200 nM) over 45.8 µM.
`COc1cc2c3cc1Oc1cc(ccc1O)C[C@@H]1c4c(cc(OC)c(O)c4Oc4ccc(cc4)C[C@@H]3N(C)CC2)CC[N+]1(C)C` [(+)-Tubocurarine chloride hydrochloride] had an IC50 cell viability (ICRF193 0 nM) of over 45.8 µM and an IC50 cell viability (ICRF193 200 nM) of over 45.8 µM.
With `NCCNCCNCCN` [Triethylenetetramine], the IC50 cell viability reads like this: (ICRF193 0 nM) over 45.8 µM; (ICRF193 200 nM) over 45.8 µM.
Consider `CC(C)OC(=O)[C@H](C)N[P@@](=O)(OC[C@H]1O[C@@H](n2ccc(=O)[nH]c2=O)[C@](C)(F)[C@@H]1O)Oc1ccccc1` [PSI-7976], for which the IC50 cell viability runs as follows: (ICRF193 0 nM) over 45.8 µM; (ICRF193 200 nM) over 45.8 µM.
In the case of `C[C@H](/C=C/[C@H](C)C(C)(C)O)[C@H]1CC[C@H]2/C(=C/C=C3C[C@@H](O)C[C@H](O)C3)CCC[C@]12C` [Paricalcitol-D6], the IC50 cell viability was over 45.8 µM (ICRF193 0 nM) and over 45.8 µM (ICRF193 200 nM).
With `CC(C)C(=O)Nc1ccc([N+](=O)[O-])c(C(F)(F)F)c1` [Flutamide], the IC50 cell viability by setting is: (ICRF193 0 nM) over 45.8 µM; (ICRF193 200 nM) over 45.8 µM.
With `CNS(=O)(=O)C[C@H]1CC[C@H](N(C)c2[nH]cnc3nccc2-3)CC1` [Oclacitinib], the IC50 cell viability (ICRF193 0 nM) is over 45.8 µM and the IC50 cell viability (ICRF193 200 nM) is over 45.8 µM.
Regarding `COC(=O)c1cccnc1` [Methyl nicotinate], the IC50 cell viability runs as follows: (ICRF193 0 nM) over 45.8 µM; (ICRF193 200 nM) over 45.8 µM.

(Values after the supplement of paper PMC12137928.)
